In publication PMC12747546, “Homoharringtonine suppresses acute myeloid leukemia progression by orchestrating EWSR1 phase separation in an m^6A‐YTHDF2‐dependent mechanism” (iMeta, 2025):
Changes are numbered by the printed parent chain.

Tests used:
Test in all cases: microscale thermophoresis
Conditions in all cases: EWSR1-C mutant; read-out: binding constants
EWSR1-C (GFP-EWSR1-C) [1] = molecular target: T1, EWSR1-C (GFP-EWSR1-C) (Homo sapiens, UniProt Q01844, M397A)
T1 construct: C-terminal region 301-656 (contains RNA recognition motif 353-453), GFP fusion, overexpressed in HEK293T, lysate
T1 sequence (Q01844 301-656 M397A): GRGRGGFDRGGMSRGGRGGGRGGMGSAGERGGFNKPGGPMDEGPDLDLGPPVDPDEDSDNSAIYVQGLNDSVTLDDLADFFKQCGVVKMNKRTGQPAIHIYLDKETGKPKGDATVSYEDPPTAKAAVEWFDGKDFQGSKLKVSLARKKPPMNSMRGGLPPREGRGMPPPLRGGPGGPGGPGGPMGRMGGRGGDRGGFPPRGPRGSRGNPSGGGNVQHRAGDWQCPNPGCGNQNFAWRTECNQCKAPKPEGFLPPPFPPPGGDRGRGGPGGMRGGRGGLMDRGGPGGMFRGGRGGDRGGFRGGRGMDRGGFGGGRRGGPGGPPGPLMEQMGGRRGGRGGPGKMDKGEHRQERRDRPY
Description: (§1) microscale thermophoresis on EWSR1-C (GFP-EWSR1-C) | The binding affinity of HHT to these EWSR1 mutants was assessed through MST

EWSR1-C (GFP-EWSR1-C) [2] = molecular target: T2, EWSR1-C (GFP-EWSR1-C) (Homo sapiens, UniProt Q01844, I400A)
T2 construct: C-terminal region 301-656 (contains RNA recognition motif 353-453), GFP fusion, overexpressed in HEK293T, lysate
T2 sequence (Q01844 301-656 I400A): T1 sequence (Q01844 301-656 M397A) with A97M, I100A
Description: as §1

EWSR1-C (GFP-EWSR1-C) [3] = molecular target: T3, EWSR1-C (GFP-EWSR1-C) (Homo sapiens, UniProt Q01844, T393A)
T3 construct: C-terminal region 301-656 (contains RNA recognition motif 353-453), GFP fusion, overexpressed in HEK293T, lysate
T3 sequence (Q01844 301-656 T393A): T1 sequence (Q01844 301-656 M397A) with T93A, A97M
Description: as §1

EWSR1-C (GFP-EWSR1-C) [4] = molecular target: T4, EWSR1-C (GFP-EWSR1-C) (Homo sapiens, UniProt Q01844, P396A)
T4 construct: C-terminal region 301-656 (contains RNA recognition motif 353-453), GFP fusion, overexpressed in HEK293T, lysate
T4 sequence (Q01844 301-656 P396A): T1 sequence (Q01844 301-656 M397A) with P96A, A97M
Description: as §1

## COC(=O)C[C@](O)(CCCC(C)(C)O)C(=O)O[C@@H]1C(OC)=C[C@]23CCCN2CCc2cc4c(cc2[C@H]13)OCO4 [Homoharringtonine]
EWSR1-C (GFP-EWSR1-C) [1]
  Kd: 9.75 µM
EWSR1-C (GFP-EWSR1-C) [2]
  Kd: 35.7 µM
EWSR1-C (GFP-EWSR1-C) [3]
  Kd: 81 µM
EWSR1-C (GFP-EWSR1-C) [4]
  Kd: 94.6 µM
